Measured values published in patent US20240376081A1, “POLYMORPH AND APPLICATION OF PYRIMIDINE DERIVATIVE AND PHARMACEUTICALLY ACCEPTABLE SALT THEREOF” (SHANGHAI HAIYAN PHARMACEUTICAL TECHNOLOGY CO., LTD., priority 2021, published 2024).
Like-named read-outs stand apart in the source and are kept apart here.

Columns and labels:
[1] = Differential scanning calorimetry (DSC), crystal form stability; type: physicochemical; conditions: may be transformed into free alkali crystal form I during warming up
Excerpt: As one of the embodiments, DSC plots in some embodiments of the present application were collected on a DISCOVERY DSC25 differential scanning calorimeter with the test parameters shown in Table 11.

[2] = In vivo pharmacokinetics in mice (LC/MS/MS plasma concentration); conditions: male, ICR, mouse; for clearance: read-out: Clearance CLz
Excerpt: The LC/MS/MS method was applied to determine the medicament concentration in plasma at different moments after intravenous administration and oral gavage administration of Compound X of the present application in mice, respectively, to study the pharmacokinetic behavior of Compound X of the present application in mice, and to evaluate its pharmacokinetic characteristics.
Test animals: healthy adult male ICR mice (weighing from 25 g to 40 g, 12 mice, free to drink and eat in the intravenous injection group, fasted overnight in the gavage group, and free to drink and eat 4 h after the administration of the medicament), supplied by Beijing Viton Lever Laboratory Animal Technology Co., Ltd.
Mode of administration and dosage: animals meeting the experimental requirements were selected and weighed and labeled before administration. ICR mice were administered by tail vein (2 mg/kg, 5% DMSO, pH 4.5 20% Captisol) and by gavage (10 mg/kg, 5% DMSO, pH 4.5 20% Captisol).
Blood sample collection: Prior to blood sample collection, mice were bound and approximately […] of blood was collected from the jugular vein of each administered mouse at predetermined blood collection time points (i.v. administration: Blood was collected at 9 time points: 0.083 h, 0.25 h, 0.5 h, 1 h, 2 h, 4 h, 6 h, 7.5 h, and 24 h, respectively, after administration; and gavage administration: Blood was collected at 9 time points: 0.083 h, 0.25 h, 0.5 h, 1 h, 2 h, 4 h, 6 h, 7.5 h, and 24 h, respectively, after administration). The blood was transferred to 1.5 mL tubes preloaded with K2EDTA, and the blood plasma was separated by centrifugation for 4 min (8,000 rpm, 4° C.), which was performed within 15 min after the collection. All samples were stored in a refrigerator at −20° C. until sample analysis. LC/MS/MS method was applied to determine the medicament concentration.

A2B receptor = A2B receptor (Homo sapiens (Human), UniProt P29275); test: Inhibitory activity on A2B receptor, cAMP assay in CHO-K1/ADORA2B/Gα15 cells (Test Example 1); type: cell-based; conditions: NECA 10 nM
Procedure: (§1) CHO-K1/ADORA2A/Gα15 (GenScript, M00246) and CHO-K1/ADORA2B/Gα15 (GenScript, M00329) cells were cultured in Ham's F-12 (Gibco, 31765092) medium with medium conditions containing 10% FBS, 200 μg/mL Zeocin (bleomycin) and 100 μg/mL Hygromycin B (thaumatin B) or 10% FBS, 400 μg/mL G418 and 100 μg/mL Hygromycin B. Details of the culture conditions are described in the corresponding instructions.

A2A receptor = A2A receptor (Homo sapiens (Human), UniProt P29274); test: Inhibitory activity on A2A receptor, cAMP assay in CHO-K1/ADORA2A/Gα15 cells (Test Example 1); type: cell-based; conditions: NECA 50 nM
Procedure: as §1

[3] = test system: mouse colon cancer MC38(#22)-hpd-L1; test: In vivo potency assay in colon cancer MC38(#22)-hpd-L1 tumor bearing mice; set-up: species or system C57BL/6 mice; conditions: twice a day for 22 days
Procedure: Experimental Protocol: In this test example, tumor bearing mice subcutaneously transplanted with mouse colon cancer MC38(#22)-hpd-L1 was investigated. After administration of Compound X of the present application via the oral administration, the in vivo efficacy of Compound X on colon cancer MC38(#22)-hpd-L1 tumor bearing mice were tested.
Experimental materials: C57BL/6 mice (female); mouse colon cancer MC38(#22)-hpd-L1 cells (Shanghai Jiao Tong University cell bank), cultured in vitro in monolayer, culture conditions were using RPMI-1640 medium containing 10/% fetal bovine serum, 37° C. 5% CO2 incubator. The cells were passaged by conventional digestion treatment with trypsin-EDTA. When the cells were in the exponential growth phase with 80% to 90% saturation, the cells were harvested and counted.
Compound Preparation: The compound was weighed and added to the solvent (40% captisol in acetate buffer, pH 3.8) to prepare a 10 mg/mL sample. 75 μL of Tecentriq solution (60 mg/mL) was taken and added to 8.925 mL of phosphate buffer solution (PBS) to make a 0.5 mg/mL phosphate solution (phosphate buffer).
Experimental Operation: Cells were resuspended in the phosphate buffer at a density of 5×10^6 cells/mL. 0.1 mL of PBS (containing 5×10^5 MC38(#22)-hpd-L1 cells) was subcutaneously inoculated into the right back of each mouse. On the day of inoculation, the mice were randomized according to their body weights into groups of 10 mice each, and dosing was begun twice a day for 22 days. The animals were weighed daily and monitored for health throughout the experimental period. Tumor diameters were measured twice a week using vernier calipers.
Tumor volume V was calculated as V=0.5×a×b^2, with a and b denoting the long and short diameters of the tumor, respectively.
The tumor suppression efficacy of the compound was evaluated by relative tumor proliferation rate T/C (%). Relative tumor proliferation rate T/C (%)=Vt/Vc×100% (Vt: mean tumor volume of the treatment group; Vc: mean tumor volume of the negative control group). Vt and Vc were data taken from the same day.

[4] = Crystal competition experiment, XRPD; type: physicochemical; conditions: mixed forms I, IV, V, VI, VII shaken in different solvents for 24 h
Procedure: In order to detect the stablest crystal form of Compound X, crystalline competition experiments were carried out. 10 mg of free alkali crystal I, free alkali crystal IV, free alkali crystal form V, free alkali crystal form VI, and free alkali crystal form VII were weighed, respectively, and mixed thoroughly. 20 mg of the mixed crystal was weighed in a glass vial, to which 1 mL of solvent in Table 14 was added respectively, and the resultant was mixed and shaken at room temperature for 24 h, and centrifugated. The precipitate was taken, dried and then measured by XRPD.

[5] = Mixing and shaking in solvents, XRPD test; type: physicochemical
Excerpt: […] After centrifugation, the supernatant was discarded, and the solids were placed in an oven to dryness and subjected to the XRPD test.

[6] = Stability experiments of free alkali crystal form I, XRPD; type: physicochemical; conditions: 40° C., 75% RH, lid open; 1 week, 2 weeks, 1 month, 2 months, 4 months
Excerpt: Samples were taken at 1 week, 2 weeks, 1 month, 2 months, and 4 months for XRPD test, respectively.

[7] = Dynamic Vapor Sorption (DVS); type: physicochemical
[8] = intravenous (tail vein) 2 mg/kg, read-out: Area under the curve AUC0-t
[9] = intravenous (tail vein) 2 mg/kg
[10] = po, gavage 10 mg/kg, read-out: Area under the curve AUClast

Sequence of A2B receptor (P29275 whole entry): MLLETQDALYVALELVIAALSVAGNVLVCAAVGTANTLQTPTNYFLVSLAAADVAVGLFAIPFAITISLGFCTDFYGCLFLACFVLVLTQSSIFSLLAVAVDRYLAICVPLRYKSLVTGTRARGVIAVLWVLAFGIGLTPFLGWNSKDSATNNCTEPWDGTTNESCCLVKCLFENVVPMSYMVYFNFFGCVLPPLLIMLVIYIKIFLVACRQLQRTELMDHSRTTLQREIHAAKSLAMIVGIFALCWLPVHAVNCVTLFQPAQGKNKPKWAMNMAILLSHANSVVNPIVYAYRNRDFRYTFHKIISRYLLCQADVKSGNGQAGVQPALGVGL
Sequence of A2A receptor (P29274 whole entry): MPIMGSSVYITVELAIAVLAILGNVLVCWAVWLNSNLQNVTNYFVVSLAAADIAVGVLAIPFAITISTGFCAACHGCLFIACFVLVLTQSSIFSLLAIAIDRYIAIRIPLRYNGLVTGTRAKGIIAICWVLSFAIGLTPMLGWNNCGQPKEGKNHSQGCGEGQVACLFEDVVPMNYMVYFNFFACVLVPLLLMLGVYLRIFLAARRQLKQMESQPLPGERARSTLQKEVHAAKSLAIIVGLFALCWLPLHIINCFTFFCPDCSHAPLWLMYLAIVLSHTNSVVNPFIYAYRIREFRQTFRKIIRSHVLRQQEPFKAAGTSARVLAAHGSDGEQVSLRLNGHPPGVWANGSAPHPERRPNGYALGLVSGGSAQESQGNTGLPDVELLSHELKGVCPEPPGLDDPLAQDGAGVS

Structure (SMILES): Cc1c(C#N)cccc1-c1nc(N)c(F)c(-c2cn(Cc3cccc(C(C)(C)O)n3)nn2)n1 [free alkali crystal form IV, 3-(4-amino-5-fluoro-6-(1-((6-(2-hydroxypropan-2-yl)pyridin-2-yl)methyl)-1H-1,2,3-triazol-4-yl)pyrimidin-2-yl)-2-methylbenzonitrile]
- crystal form stability from DSC plot [1]: sub-stable crystal form

Structure (SMILES): Cc1c(C#N)cccc1-c1nc(N)c(F)c(-c2cn(Cc3cccc(C(C)(C)O)n3)nn2)n1 [Compound X, 3-(4-amino-5-fluoro-6-(1-((6-(2-hydroxypropan-2-yl)pyridin-2-yl)methyl)-1H-1,2,3-triazol-4-yl)pyrimidin-2-yl)-2-methylbenzonitrile]
- AUC(0-t) [2, 8]: 2250 ng·h/mL
- clearance [2, 9]: 14.7 mL/min/kg
- Cmax ([2]; po, gavage 10 mg/kg): 8730 ng/mL
- AUC(0-t) [2, 10]: 10400 ng·h/mL
- IC50 (A2B receptor): 0.003 mM
- IC50 (A2A receptor): 0.001 mM
- Relative tumor proliferation rate T/C (%) ([3]; 10 mg/kg oral): 75.5%
- Tumor volume ([3]; 10 mg/kg oral): 899 mm^3
- Relative tumor proliferation rate T/C (%) ([3]; 30 mg/kg oral): 34.0%
- Tumor volume ([3]; 30 mg/kg oral): 405 mm^3
- Relative tumor proliferation rate T/C (%) ([3]; 100 mg/kg oral): 24.0%
- Tumor volume ([3]; 100 mg/kg oral): 286 mm^3

Structure (SMILES): Cc1c(C#N)cccc1-c1cc(-c2cn(Cc3cccc(C(C)(C)O)n3)nn2)nc(N)n1 [Compound D1, reference compound]
- AUC(0-t) [2, 8]: 1650 ng·h/mL
- clearance [2, 9]: 19 mL/min/kg
- Cmax ([2]; po, gavage 10 mg/kg): 5960 ng/mL
- AUC(0-t) [2, 10]: 10300 ng·h/mL
- Relative tumor proliferation rate T/C (%) ([3]; 100 mg/kg oral): 75.8%
- Tumor volume ([3]; 100 mg/kg oral): 902 mm^3

Structure (SMILES): Cc1c(C#N)cccc1-c1nc(N)c(F)c(-c2cn(Cc3cccc(C(C)(C)O)n3)nn2)n1 [free alkali crystal form I, 3-(4-amino-5-fluoro-6-(1-((6-(2-hydroxypropan-2-yl)pyridin-2-yl)methyl)-1H-1,2,3-triazol-4-yl)pyrimidin-2-yl)-2-methylbenzonitrile]
- stablest crystal form determined by competition [4]: stable crystal form
- Crystal form after mixing and shaking ([5]; 50% Ethanol, 50° C., 1 day): Crystal form I
- Crystal form after mixing and shaking ([5]; 50% Ethanol, RT, 1 day): Crystal form I
- Crystal form after mixing and shaking ([5]; 50% Ethanol, RT, 7 days): Crystal form I
- Crystal form after mixing and shaking ([5]; Ethanol, 50° C., 1 day): Crystal form I
- Crystal form after mixing and shaking ([5]; Ethanol, RT, 1 day): Crystal form I
- Crystal form after mixing and shaking ([5]; Ethanol, RT, 7 days): Crystal form I
- Crystal form after mixing and shaking ([5]; Ethyl acetate, 50° C., 1 day): Crystal form I
- Crystal form after mixing and shaking ([5]; Ethyl acetate, RT, 1 day): Crystal form I
- Crystal form after mixing and shaking ([5]; Ethyl acetate, RT, 7 days): Crystal form I
- Crystal form after mixing and shaking ([5]; Isopropanol, 50° C., 1 day): Crystal form I
- Crystal form after mixing and shaking ([5]; Isopropanol, RT, 1 day): Crystal form I
- Crystal form after mixing and shaking ([5]; Isopropanol, RT, 7 days): Crystal form I
- Crystal form after mixing and shaking ([5]; Methyl tert-butyl ether, 50° C., 1 day): Crystal form I
- Crystal form after mixing and shaking ([5]; Methyl tert-butyl ether, RT, 1 day): Crystal form I
- Crystal form after mixing and shaking ([5]; Methyl tert-butyl ether, RT, 7 days): Crystal form I
- Crystal form after mixing and shaking ([5]; Water, 50° C., 1 day): Crystal form I
- Crystal form after mixing and shaking ([5]; Water, RT, 1 day): Crystal form I
- Crystal form after mixing and shaking ([5]; Water, RT, 7 days): Crystal form I
- change of crystal form after mixing and shaking ([5]; any of the seven solvents shown): did not change
- Crystal form after mixing and shaking ([5]; n-Heptane, 50° C., 1 day): Crystal form I
- Crystal form after mixing and shaking ([5]; n-Heptane, RT, 1 day): Crystal form I
- Crystal form after mixing and shaking ([5]; n-Heptane, RT, 7 days): Crystal form I
- physical stability (XRPD) [6]: physically stable
- hygroscopicity ([7]; DVS, 0% to 80% RH at 25° C.): almost no hygroscopicity
- change in mass due to absorption ([7]; relative humidity from 0% to 80% RH at 25° C.): less than 0.2%
